Target: T1, Dipeptidyl Peptidase-IV (DPP-IV) (Homo sapiens, UniProt P27487)
T1 construct: made in house
Test: Measurement of DPP-IV Activity-Inhibiting Ability (fluorescent substrate Ac-Gly-Pro-AFC)
Assay type: biochemical
Details: 25° C., 50 mmol HEPES (pH 7.4), DP-IV 7.1 nM, enzyme reaction for 1 hour
Text: Dipeptidyl Peptidase-IV (DPP-IV), known as serine protease, was obtained by a modification of the known method (Tanaka T. et al, Proc. Natl. Acad. Sci. USA, (1994) 91, 3082-3086), which comprises cloning, purification by use of Baculo-Virus and activation steps. DPP-IV was used to test the pharmaceutical efficacy of candidate inhibitors as follows. The cloned DP-IV was expressed in Baculo-Virus, which was purified by nickel column and then subjected to dialysis. The inhibitors synthesized in Examples were tested to determine the binding activity there of using a fluorescent substrate, Ac-Gly-Pro-AFC. Enzyme reactions were conducted for various concentrations of inhibitors, using 100 µM Ac-Gly-Pro-AFC at 25° C. in a buffer solution containing 50 mmol HEPES (pH 7.4), with the concentration of DP-IV being 7.1 nM. […] As the fluorescent spectrometer, Spectra MAX GeminiXS fluorescent spectrometer from Molecular Device Co. was used and the excitation frequency and emission frequency were set to 400 nm and 505 nm, respectively.

T1 sequence (P27487 whole entry): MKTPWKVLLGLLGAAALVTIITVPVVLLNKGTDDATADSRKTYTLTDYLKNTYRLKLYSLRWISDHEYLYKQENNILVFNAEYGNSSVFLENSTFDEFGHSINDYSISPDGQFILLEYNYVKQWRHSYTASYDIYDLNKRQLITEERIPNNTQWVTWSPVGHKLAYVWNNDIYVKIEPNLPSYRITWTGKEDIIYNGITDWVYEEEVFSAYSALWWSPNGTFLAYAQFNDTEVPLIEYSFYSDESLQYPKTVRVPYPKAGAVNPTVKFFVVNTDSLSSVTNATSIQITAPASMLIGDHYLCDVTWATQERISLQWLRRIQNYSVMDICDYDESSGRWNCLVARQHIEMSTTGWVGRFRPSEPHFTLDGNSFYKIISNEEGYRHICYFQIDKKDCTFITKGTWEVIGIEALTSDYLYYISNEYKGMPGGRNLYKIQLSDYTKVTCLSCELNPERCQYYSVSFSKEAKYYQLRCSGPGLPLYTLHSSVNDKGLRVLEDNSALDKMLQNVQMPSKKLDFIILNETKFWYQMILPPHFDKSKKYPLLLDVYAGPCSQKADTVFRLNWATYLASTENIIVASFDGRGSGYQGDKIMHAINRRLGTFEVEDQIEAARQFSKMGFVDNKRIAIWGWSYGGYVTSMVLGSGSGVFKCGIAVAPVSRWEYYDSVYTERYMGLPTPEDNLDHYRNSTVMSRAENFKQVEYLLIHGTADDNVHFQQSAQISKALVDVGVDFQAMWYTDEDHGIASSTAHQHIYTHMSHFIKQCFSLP

Structure (SMILES) | IC50
C[C@@H]1CCC(=O)N(C[C@@H](N)CC(=O)N2CCc3c(nc(-c4ccc(F)cc4)nc3C(F)(F)F)C2)C1 [Ex. 34, (5R)-1-{(2S)-2-amino-4-[2-(4-fluorophenyl)-4-(trifluoromethyl)-5,8-dihydropyrido[3,4-d]pyrimidin-7(6H)-yl]-4-oxobutyl}-5-methylpiperidin-2-one] | 34 nM
N[C@@H](CC(=O)N1CCc2c(nc(-c3ccc(F)c(F)c3)nc2C(F)(F)F)C1)CN1CC(F)(F)CCC1=O [Ex. 35, 1-{(2S)-2-amino-4-[2-(3,4-difluorophenyl)-4-(trifluoromethyl)-5,8-dihydropyrido[3,4-d]pyrimidin-7(6H)-yl]-4-oxobutyl}-5,5-difluoropiperidin-2-one] | 51 nM
N[C@@H](CC(=O)N1CCc2c(nc(C3CCCC3)nc2C(F)(F)F)C1)CN1CC(F)(F)CCC1=O [Ex. 40, 1-{(2S)-2-amino-4-[2-cyclopentyl-4-(trifluoromethyl)-5,8-dihydropyrido[3,4-d]pyrimidin-7(6H)-yl]-4-oxobutyl}-5,5-difluoropiperidin-2-one] | 30 nM
C[C@H]1CN(C[C@@H](N)CC(=O)N2CCc3sc(-c4ccc(C(F)(F)F)cc4)nc3C2)C(=O)CO1 [Ex. 42, (6S)-4-[(2S)-2-amino-4-oxo-4-{2-[4-(trifluoromethyl)phenyl]-6,7-dihydro[1,3]thiazolo[4,5,c]pyridin-5(4H)-yl}butyl]-6-methylmorpholine-3-one] | 14 nM
C[C@@H]1CCC(=O)N(C[C@@H](N)CC(=O)N2CCc3sc(-c4ccc(F)cc4)nc3C2)C1 [Ex. 44, (5R)-1-{(2S)-2-amino-4-[2-(4-fluorophenyl)-6,7-dihydro[1,3]thiazolo[4,5,c]pyridin-5(4H)-yl]-4-oxobutyl}-5-methylpiperidin-2-one] | 13 nM
C[C@H]1CN(C[C@@H](N)CC(=O)N2CCc3sc(-c4ccc(F)cc4)nc3C2)C(=O)CO1 [Ex. 45, (6S)-4-{(2S)-2-amino-4-oxo-4-[2-(4-fluorophenyl)6,7-dihydro[1,3]thiazolo[4,5,c]pyridin-5(4H)-yl]butyl}-6-methylmorpholine-3-one] | 22 nM
N[C@@H](CC(=O)N1CCc2sc(-c3ccc(F)cc3)nc2C1)CN1CC(F)(F)CCC1=O [Ex. 46, 1-{(2S)-2-amino-4-[2-(4-fluorophenyl)-6,7-dihydro[1,3]thiazolo[4,5,c]pyridin-5(4H)-yl]-4-oxobutyl}-5,5-difluoropiperidin-2-one] | 22 nM
C[C@@H]1CCC(=O)N(C[C@@H](N)CC(=O)N2CCc3sc(C4CCOCC4)nc3C2)C1 [Ex. 47, (5R)-1-{(2S)-2-amino-4-oxo-4-[2-(tetrahydro-2H-pyran-4-yl)-6,7-dihydro[1,3]thiazolo[4,5,c]pyridin-5(4H)-yl]butyl}-5-methylpiperidin-2-one] | 279 nM
N[C@@H](CC(=O)N1CCc2sc(C3CCOCC3)nc2C1)CN1CC(F)(F)CCC1=O [Ex. 49, 1-{(2S)-2-amino-4-oxo-4-[2-(tetrahydro-2H-pyran-4-yl)-6,7-dihydro[1,3]thiazolo[4,5, c]pyridin-5(4H)-yl]butyl}-5,5-difluoropiperidin-2-one] | 236 nM
C[C@H]1CN(C[C@@H](N)CC(=O)N2CCc3sc(C(F)(F)F)nc3C2)C(=O)CO1 [Ex. 50, (6S)-4-{(2S)-2-amino-4-oxo-4-[2-(trifluoromethyl)-6,7-dihydro[1,3]thiazolo[4,5,c]pyridin-5(4H)-yl]butyl}-6-methylmorpholine-3-one] | 422 nM
N[C@@H](CC(=O)N1CCc2c(nc(CC3CC3)nc2C(F)(F)F)C1)CN1CC(F)(F)CCC1=O [Ex. 55, 1-{(2S)-2-amino-4-[2-(cyclopropylmethyl)-4-(trifluoromethyl)-5,8-dihydropyrido[3,4-d]pyrimidin-7(6H)-yl]-4-oxobutyl}-5,5-difluoropiperidin-2-one] | 20 nM
C[C@@H]1CCC(=O)N(C[C@@H](N)CC(=O)N2CCc3c(nc(-c4ccncc4)nc3C(F)(F)F)C2)C1 [Ex. 56, (5R)-1-{(2S)-2-amino-4-oxo-4-[2-pyridin-4-yl-4-(trifluoromethyl)-5,8-dihydropyrido[3,4-d]pyrimidin-7(6H)-yl]butyl}-5-methylpiperidin-2-one] | 11 nM
N[C@@H](CC(=O)N1CCc2c(nc(-c3ccsc3)nc2C(F)(F)F)C1)CN1CC(F)(F)CCC1=O [Ex. 61, 1-{(2S)-2-amino-4-oxo-4-[2-(3-thienyl)-4-(trifluoromethyl)-5,8-dihydropyrido[3,4-d]pyrimidin-7(6H)-yl]butyl}-5,5-difluoropiperidin-2-one] | 55 nM

Further compounds by falling IC50, results first:

IC50 | Structure (SMILES)
357 nM | C[C@H]1CN(C[C@@H](N)CC(=O)N2CCc3sc(C4CCOCC4)nc3C2)C(=O)CO1 [Ex. 48, (6S)-4-{(2R)-2-amino-4-oxo-4-[2-(tetrahydro-2H-pyran-4-yl)-6,7-dihydro[1,3]thiazolo[4,5,c]pyridin-5(4H)-yl]butyl}-6-methylmorpholine-3-one]
114 nM | N[C@@H](CC(=O)N1CCc2sc(C(F)(F)F)nc2C1)CN1CC(F)(F)CCC1=O [Ex. 51, 1-{(2S)-2-amino-4-oxo-4-[2-(trifluoromethyl)-6,7-dihydro[1,3]thiazolo[4,5,c]pyridin-5(4H)-yl]butyl}-5,5-difluoropiperidin-2-one]
61 nM | C[C@@H]1CCC(=O)N(C[C@@H](N)CC(=O)N2CCc3c(nc(-c4ccsc4)nc3C(F)(F)F)C2)C1 [Ex. 60, (5R)-1-{(2S)-2-amino-4-oxo-4-[2-(3-thienyl)-4-(trifluoromethyl)-5,8-dihydropyrido[3,4-d]pyrimidin-7(6H)-yl]butyl}-5-methylpiperidin-2-one]
51 nM | C[C@H]1CN(C[C@@H](N)CC(=O)N2CCc3c(nc(C4CCCC4)nc3C(F)(F)F)C2)C(=O)CO1 [Ex. 39]
48 nM | N[C@@H](CC(=O)N1CCc2c(nc(-c3ccncc3)nc2C(F)(F)F)C1)CN1CC(F)(F)CCC1=O [Ex. 57, 1-{(2S)-2-amino-4-oxo-4-[2-pyridin-4-yl-4-(trifluoromethyl)-5,8-dihydropyrido[3,4-d]pyrimidin-7(6H)-yl]butyl}-5,5-difluoropiperidin-2-one]
36 nM | C[C@@H]1CCC(=O)N(C[C@@H](N)CC(=O)N2CCc3c(nc(-c4ccc(F)c(F)c4)nc3C(F)(F)F)C2)C1 [Ex. 37, (5R)-1-{(2S)-2-amino-4-[2-(3,4-difluorophenyl)-4-(trifluoromethyl)-5,8-dihydropyrido[3,4-d]pyrimidin-7(6H)-yl]-4-oxobutyl}-5-methylpiperidin-2-one]
36 nM | N[C@@H](CC(=O)N1CCc2c(nc(Cc3ccc(F)cc3)nc2C(F)(F)F)C1)CN1CC(F)(F)CCC1=O [Ex. 59, 1-{(2S)-2-amino-4-[2-(4-fluorobenzyl)-4-(trifluoromethyl)-5,8-dihydropyrido[3,4-d]pyrimidin-7(6H)-yl]-4-oxobutyl}-5,5-difluoropiperidin-2-one]
33 nM | C[C@H]1CN(C[C@@H](N)CC(=O)N2CCc3c(nc(-c4ccc(F)c(F)c4)nc3C(F)(F)F)C2)C(=O)CO1 [Ex. 36]
30 nM | C[C@@H]1CCC(=O)N(C[C@@H](N)CC(=O)N2CCc3c(nc(CC4CC4)nc3C(F)(F)F)C2)C1 [Ex. 54, (5R)-1-{(2S)-2-amino-4-[2-(cyclopropylmethyl)-4-(trifluoromethyl)-5,8-dihydropyrido[3,4-d]pyrimidin-7(6H)-yl]-4-oxobutyl}-5-methylpiperidin-2-one]
26 nM | COCCc1nc2c(c(C(F)(F)F)n1)CCN(C(=O)C[C@H](N)CN1CC(F)(F)CCC1=O)C2 [Ex. 53, 1-{(2S)-2-amino-4-[2-(2-methoxyethyl)-4-(trifluoromethyl)-5,8-dihydropyrido[3,4-d]pyrimidin-7(6H)-yl]-4-oxobutyl}-5,5-difluoropiperidin-2-one]
20 nM | C[C@@H]1CCC(=O)N(C[C@@H](N)CC(=O)N2CCc3c(nc(C4CCCC4)nc3C(F)(F)F)C2)C1 [Ex. 38, (5R)-1-{(2S)-2-amino-4-[2-cyclopentyl-4-(trifluoromethyl)-5,8-dihydropyrido[3,4-d]pyrimidin-7(6H)-yl]-4-oxobutyl}-5-methylpiperidin-2-one]
18 nM | COCCc1nc2c(c(C(F)(F)F)n1)CCN(C(=O)C[C@H](N)CN1C[C@H](C)CCC1=O)C2 [Ex. 52, (5R)-1-{(2S)-2-amino-4-[2-(2-methoxyethyl)-4-(trifluoromethyl)-5,8-dihydropyrido[3,4-d]pyrimidin-7(6H)-yl]-4-oxobutyl}-5-methylpiperidin-2-one]
14 nM | C[C@@H]1CCC(=O)N(C[C@@H](N)CC(=O)N2CCc3sc(-c4ccc(C(F)(F)F)cc4)nc3C2)C1 [Ex. 41, (5R)-1-[(2S)-2-amino-4-oxo-4-{2-[4-(trifluoromethyl)phenyl]-6,7-dihydro[1,3]thiazolo[4,5,c]pyridin-5(4H)-yl}butyl]-5-methylpiperidin-2-one]
14 nM | C[C@@H]1CCC(=O)N(C[C@@H](N)CC(=O)N2CCc3c(nc(Cc4ccc(F)cc4)nc3C(F)(F)F)C2)C1 [Ex. 58, (5R)-1-{(2S)-2-amino-4-[2-(4-fluorobenzyl)-4-(trifluoromethyl)-5,8-dihydropyrido[3,4-d]pyrimidin-7(6H)-yl]-4-oxobutyl}-5-methylpiperidin-2-one]
9 nM | N[C@@H](CC(=O)N1CCc2sc(-c3ccc(C(F)(F)F)cc3)nc2C1)CN1CC(F)(F)CCC1=O [Ex. 43, 1-[(2S)-2-amino-4-oxo-4-{2-[4-(trifluoromethyl)phenyl]-6,7-dihydro[1,3]thiazolo[4,5,c]pyridin-5(4H)-yl}butyl]-5,5-difluoropiperidin-2-one]

From patent US7879848B2, “Dipeptidyl Peptidase-IV inhibiting compounds, method of preparing the same, and pharmaceutical compositions containing the same as an active agent” (LG Life Sciences, Ltd., priority 2005, dated 2011)
